Assay results: patent US20240067651A1 (Biohaven Therapeutics Ltd., priority 2019, published 2024)

Assays:
[1] = Caco-2 Permeability Assay; assay type: in vitro ADME, human; settings: human
How it was run: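 Bidirectional transport at 37 °C for 90 min, 10 μM donor concentration, with or without Pgp inhibitor, across 21-day Caco-2 monolayers with TEER >600 […] in HEPES-buffered HBSS, pH 7.4. LC-MS/MS of donor and receiver samples gives Papp, B→A/A→B efflux ratio and mass recovery.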

[2] = Stability in Simulated Gastric Fluid (SGF); assay type: in vitro ADME; set-up: key: % parent compound remaining relative to 0-minute sample; settings: % remaining at 1 h, SGF with pepsin pH 1.2, 2 μg/mL, 37° C.
How it was run: (§1)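 LC-MS/MS read-out of intact compound (2 μg/mL final) over 60 minutes at 37° C; gastric medium pH 1.2 with pepsin, intestinal medium pH 6.8 with pancreatin. Half-life from ln(% remaining) against time.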

[3] = Stability in Simulated Intestinal Fluid (SIF); assay type: in vitro ADME; set-up: key: % parent compound remaining relative to 0-minute sample; settings: % remaining at 1 h, SIF with pancreatin pH 6.8, 2 μg/mL, 37° C.
How it was run: as §1

Plasma Stability = assay type: in vitro ADME, human; settings: % remaining at 1 h, human plasma, 1 μM, 37° C.
How it was run: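 Parent compound quantified by LC-MS/MS after acetonitrile precipitation, reported as percent of control remaining (triplicate). Incubation: 1 hour, 37° C, fresh human plasma, compound at 1 μM.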

[4] = Caco-2, pH 7.4, donor 10 μM, 90 minutes, 37° C., direction not given
[5] = Caco-2, pH 7.4, no unit printed at the place (tables the 9th table and the 10th table have no head)

Row | SGF [2] [%] | SIF [3] [%] | human Plasma stability (Plasma Stability) [%] | Papp at 90 min, 10 µM [1, 5] [×10⁻⁶ cm/s] | Compound | Papp at 90 min, 10 µM [1, 4] [×10⁻⁶ cm/s] | SGF ([2]; listed as EXAMPLE 102) [%] | SIF ([3]; listed as EXAMPLE 102) [%] | human Plasma stability (Plasma Stability; listed as EXAMPLE 102) [%]
1 | 95 | 84 | 14 | 24.3 | COCCOCCOC(=O)OCn1ccc2c1c(=O)[nH]c(=S)n2CCOC(C)C [Example 105, 2-(2-methoxyethoxy)ethyl {4-oxo-1-[2-(propan-2-yloxy)ethyl]-2-sulfanylidene-1H,2H,3H,4H,5H-pyrrolo[3,2-d]pyrimidin-5-yl}methyl carbonate] |  |  |  | 
2 | 93 | 92 | 86 | 11.5 | CC(C)OCCn1c(=S)[nH]c(=O)c2c1ccn2COC(=O)N[C@H](C(=O)OC(C)(C)C)C(C)C [Example 107, tert-butyl (2S)-3-methyl-2-{[{{4-oxo-1-[2-(propan-2-yloxy)ethyl]-2-sulfanylidene-1H,2H,3H,4H,5H-pyrrolo[3,2-d]pyrimidin-5-yl}methoxy)carbonyl]amino}butanoate] |  |  |  | 
3 | 94 | 96 | 100 |  | CC(C)OCCn1c(=S)[nH]c(=O)c2c1ccn2COC(=O)N[C@H](C(=O)O)C(C)C [Example 109, (2S)-3-methyl-2-{[({4-oxo-1-[2-(propan-2-yloxy)ethyl]-2-sulfanylidene-1H,2H,3H,4H,5H-pyrrolo[3,2-d]pyrimidin-5-yl}methoxy)carbonyl]amino}butanoic acid] | 0.094 |  |  | 

Further lines, the compound ahead of its results:

Row | Compound | SGF [2] [%] | SIF [3] [%] | human Plasma stability (Plasma Stability) [%] | Papp at 90 min, 10 µM [1, 5] [×10⁻⁶ cm/s] | Papp at 90 min, 10 µM [1, 4] [×10⁻⁶ cm/s] | SGF ([2]; listed as EXAMPLE 102) [%] | SIF ([3]; listed as EXAMPLE 102) [%] | human Plasma stability (Plasma Stability; listed as EXAMPLE 102) [%]
4 | COC(=O)[C@H](CCCCNC(=O)OC(C)(C)C)NC(=O)OCn1ccc2c1c(=O)[nH]c(=S)n2CCOC(C)C [Example 102, Methyl (2S)-6-{[(tert-butoxy)carbonyl]amino}-2-{[({4-oxo-1-[2-(propan-2-yloxy)ethyl]-2-sulfanylidene-1H,2H,3H,4H,5H-pyrrolo[3,2-d]pyrimidin-5-yl}methoxy)carbonyl]amino}hexanoate] |  |  |  |  | 1.46 | 75 | 96 | 97
5 | COC(=O)[C@H](CCCCNC(=O)OC(C)(C)C)NC(=O)n1ccc2c1c(=O)[nH]c(=S)n2CCOC(C)C [Example 103, Methyl (2S)-6-{[(tert-butoxy)carbonyl]amino}-2-({4-oxo-1-[2-(propan-2-yloxy)ethyl]-2-sulfanylidene-1H,2H,3H,4H,5H-pyrrolo[3,2-cl]pyrimidine-5-carbonyl}amino)hexanoate] | 96 | 96 | 92 |  | 13.5 |  |  | 
6 | COCCOCCOC(=O)OCSc1nc(=O)c2c(ccn2COC(=O)OCCOCCOC)n1CCOC(C)C [Example 104, (2-{[{{[2-(2-methoxyethoxy)ethoxy]carbonyl}oxy)methyl]sulfanyl}-4-oxo-1-[2-(propan-2-yloxy)ethyl]-1H,4H,5H-pyrrolo[3,2-d]pyrimidin-5-yl)methyl 2-(2-methoxyethoxy)ethyl carbonate] | 96 | 70 | 18 | 0.276 |  |  |  | 
7 | COC(=O)[C@H](CCCCN)NC(=O)OCn1ccc2c1c(=O)[nH]c(=S)n2CCOC(C)C.O=C(O)C(F)(F)F [Example 110, trifluoroacetic acid methyl (2S)-6-amino-2-{[{{4-oxo-1-[2-(propan-2-yloxy)ethyl]-2-sulfanylidene-1H,2H,3H,4H,5H-pyrrolo[3,2-d]pyrimidin-5-yl}methoxy)carbonyl]amino}hexanoate] | 81 | 45 | 62 |  | 0.142 |  |  | 
8 | COC(=O)[C@H](CCCCNC(=O)[C@@H](NC(=O)OC(C)(C)C)C(C)C)NC(=O)OCn1ccc2c1c(=O)[nH]c(=S)n2CCOC(C)C [Example 111, methyl (2S)-6-[(2S)-2-{[(tert-butoxy)carbonyl]amino}-3-methylbutanamido]-2-{[{{4-oxo-1-[2-(propan-2-yloxy)ethyl]-2-sulfanylidene-1H,2H,3H,4H,5H-pyrrolo[3,2-d]pyrimidin-5-yl}methoxy)carbonyl]amino}hexanoate] | 87 | 74 | 85 |  | 0.575 |  |  | 
